What follows are compounds tested against human full-length MKNK1 (Homo sapiens (Human), UniProt Q9BUB5, T344D) (assay: MKNK1 kinase high ATP assay (TR-FRET)). Settings: high ATP (2 mM), 15 min preincubation with enzyme; read-out: MKNK1 IC50.
Type: biochemical
Protocol: MKNK1 Kinase High ATP Assay
MKNK1-inhibitory activity at high ATP of compounds of the present invention after their preincubation with MKNK1 was quantified employing the TR-FRET-based MKNK1 high ATP assay as described in the following paragraphs.
A recombinant fusion protein of Glutathione-S-Transferase (GST, N-terminally) and human full-length MKNK1 (amino acids 1-424 and T344D of accession number BAA 19885.1), expressed in insect cells using baculovirus expression system and purified via glutathione sepharose affinity chromatography, was purchased from Carna Biosciences (product no 02-145) and used as enzyme. As substrate for the kinase reaction the biotinylated peptide biotin-Ahx-IKKRKLTRRKSLKG (SEQ ID NO: 1, C-terminus in amide form) was used, which can be purchased e.g. from the company Biosyntan (Berlin-Buch, Germany).
For the assay 50 nL of a 100 fold concentrated solution of the test compound in DMSO was pipetted into a black low volume 384 well microtiter plate (Greiner Bio-One, Frickenhausen, Germany), 2 μL of a solution of MKNK1 in aqueous assay buffer [50 mM HEPES pH 7.5, 5 mM MgCl2, 1.0 mM dithiothreitol, 0.005% (v/v) Nonidet-P40 (Sigma)] was added and the mixture was incubated for 15 min at 22° C. to allow pre-binding of the test compounds to the enzyme before the start of the kinase reaction. Then the kinase reaction was started by the addition of 3 μL of a solution of adenosine-tri-phosphate (ATP, 3.3 mM=>final conc. in the 5 μL assay volume is 2 mM) and substrate (0.1 μM=>final conc. in the 5 μL assay volume is 0.06 μM) in assay buffer and the resulting mixture was incubated for a reaction time of 30 min at 22° C. The concentration of MKNK1 was adjusted depending of the activity of the enzyme lot and was chosen appropriate to have the assay in the linear range, typical concentrations were in the range of 0.003 μg/mL. The reaction was stopped by the addition of 5 μL of a solution of TR-FRET detection reagents (5 nM streptavidine-XL665 [Cisbio Bioassays, Codolet, France] and 1 nM anti-ribosomal protein S6 (pSer236)-antibody from Invitrogen [#44921G] and 1 nM LANCE EU-W1024 labeled ProteinG [Perkin-Elmer, product no. AD0071]) in an aqueous EDTA-solution (100 mM EDTA, 0.1% (w/v) bovine serum albumin in 50 mM HEPES pH 7.5).
The resulting mixture was incubated for 1 h at 22° C. to allow the formation of complex between the phosphorylated biotinylated peptide and the detection reagents. Subsequently the amount of phosphorylated substrate was evaluated by measurement of the resonance energy transfer from the Eu-chelate to the streptavidine-XL. Therefore, the fluorescence emissions at 620 nm and 665 nm after excitation at 350 nm were measured in a TR-FRET reader, e.g. a Rubystar (BMG Labtechnologies, Offenburg, Germany) or a Viewlux (Perkin-Elmer). The ratio of the emissions at 665 nm and at […] was taken as the measure for the amount of phosphorylated substrate. The data were normalised (enzyme reaction without inhibitor=0% inhibition, all other assay components but no enzyme=100% inhibition).

human full-length MKNK1, sequence (Q9BUB5 other isoform, or with tags, fused parts or gaps T344D): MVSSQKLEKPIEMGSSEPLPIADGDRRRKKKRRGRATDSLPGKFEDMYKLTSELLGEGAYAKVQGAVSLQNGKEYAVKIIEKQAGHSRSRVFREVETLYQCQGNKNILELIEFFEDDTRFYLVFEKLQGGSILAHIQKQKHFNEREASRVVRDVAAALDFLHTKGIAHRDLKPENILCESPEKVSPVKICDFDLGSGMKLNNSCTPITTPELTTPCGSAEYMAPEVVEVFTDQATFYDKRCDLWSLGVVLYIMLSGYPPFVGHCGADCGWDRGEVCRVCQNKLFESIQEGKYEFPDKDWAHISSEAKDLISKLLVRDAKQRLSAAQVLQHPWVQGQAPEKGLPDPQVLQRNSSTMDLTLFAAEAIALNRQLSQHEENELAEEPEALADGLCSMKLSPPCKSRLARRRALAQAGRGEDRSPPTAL

Row | SMILES | IC50 [nM]
1 | CN(C)C(=O)C1CCc2c(sc3ncnc(Nc4ccn5nccc5c4)c23)C1 (racemic) [Example 1, (RS) N,N-Dimethyl-4-(pyrazolo[1,5-a]pyridin-5-ylamino)-5,6,7,8-tetrahydro[1]benzothieno[2,3-d]pyrimidine-7-carboxamide] | 64
2 | O=C(O)[C@H]1CCc2c(sc3ncnc(Nc4ccn5nccc5c4)c23)C1 [Example 2, (7S)-4-(Pyrazolo[1,5-a]pyridin-5-ylamino)-5,6,7,8-tetrahydro[1]benzothieno[2,3-d]pyrimidine-7-carboxylic acid] | 707
3 | C[C@@H]1COCCN1C(=O)[C@H]1CCc2c(sc3ncnc(Nc4ccn5nccc5c4)c23)C1 [Example 3, [(3R)-3-Methylmorpholin-4-yl][(7S)-4-(pyrazolo[1,5-a]pyridin-5-ylamino)-5,6,7,8-tetrahydro[1]benzothieno[2,3-d]pyrimidin-7-yl]methanone] | 80
4 | CN(C)CCN(C)C(=O)[C@H]1CCc2c(sc3ncnc(Nc4ccn5nccc5c4)c23)C1 [Example 4, (7S)—N-[2-(Dimethylamino)ethyl]-N-methyl-4-(pyrazolo[1,5-a]pyridin-5-ylamino)-5,6,7,8-tetrahydro[1]benzothieno[2,3-d]pyrimidine-7-carboxamide] | 21
5 | C[C@@H]1CN(C(=O)[C@H]2CCc3c(sc4ncnc(Nc5ccn6nccc6c5)c34)C2)C[C@H](C)O1 [Example 5, [(2R,6S)-2,6-Dimethylmorpholin-4-yl][(7S)-4-(pyrazolo[1,5-a]pyridin-5-ylamino)-5,6,7,8-tetrahydro[1]benzothieno[2,3-d]pyrimidin-7-yl]methanone] | 21
6 | CN(C)[C@@H]1CCN(C(=O)[C@H]2CCc3c(sc4ncnc(Nc5ccn6nccc6c5)c34)C2)C1 [Example 6, [(3R)-3-(Dimethylamino)pyrrolidin-1-yl][(7S)-4-(pyrazolo[1,5-a]pyridin-5-ylamino)-5,6,7,8-tetrahydro[1]benzothieno[2,3-d]pyrimidin-7-yl]methanone] | 12
7 | C[C@H]1COCCN1C(=O)[C@H]1CCc2c(sc3ncnc(Nc4ccn5nccc5c4)c23)C1 [Example 7, [(3S)-3-Methylmorpholin-4-yl][(7S)-4-(pyrazolo[1,5-a]pyridin-5-ylamino)-5,6,7,8-tetrahydro[1]benzothieno[2,3-d]pyrimidin-7-yl]methanone] | 65
8 | COCCN(C)C(=O)[C@H]1CCc2c(sc3ncnc(Nc4ccn5nccc5c4)c23)C1 [Example 8, (7S)—N-(2-Methoxyethyl)-N-methyl-4-(pyrazolo[1,5-a]pyridin-5-ylamino)-5,6,7,8-tetrahydro[1]benzothieno[2,3-d]pyrimidine-7-carboxamide] | 42
9 | C[C@H]1CN(C(=O)[C@H]2CCc3c(sc4ncnc(Nc5ccn6nccc6c5)c34)C2)C[C@H](C)O1 [Example 9, [(2S,6S)-2,6-Dimethylmorpholin-4-yl][(7S)-4-(pyrazolo[1,5-a]pyridin-5-ylamino)-5,6,7,8-tetrahydro[1]benzothieno[2,3-d]pyrimidin-7-yl]methanone] | 49
10 | C[C@@H]1CN(C(=O)[C@H]2CCc3c(sc4ncnc(Nc5ccn6nccc6c5)c34)C2)C[C@@H](C)O1 [Example 10, [(2R,6R)-2,6-Dimethylmorpholin-4-yl][(7S)-4-(pyrazolo[1,5-a]pyridin-5-ylamino)-5,6,7,8-tetrahydro[1]benzothieno[2,3-d]pyrimidin-7-yl]methanone] | 33
11 | O=C([C@H]1CCc2c(sc3ncnc(Nc4ccn5nccc5c4)c23)C1)N1CCOCC1 [Example 11, Morpholin-4-yl[(7S)-4-(pyrazolo[1,5-a]pyridin-5-ylamino)-5,6,7,8-tetrahydro[1]benzothieno[2,3-d]pyrimidin-7-yl]methanone] | 62
12 | O=C([C@H]1CCc2c(sc3ncnc(Nc4ccn5nccc5c4)c23)C1)N1CC2CC2C1 (stereo partly drawn) [Example 12, 3-Azabicyclo[3.1.0]hex-3-yl[(7S)-4-(pyrazolo[1,5-a]pyridin-5-ylamino)-5,6,7,8-tetrahydro[1]benzothieno[2,3-d]pyrimidin-7-yl]methanone] | 24
13 | C[C@@H]1COC[C@H](C)N1C(=O)[C@H]1CCc2c(sc3ncnc(Nc4ccn5nccc5c4)c23)C1 [Example 13, [(3R,5S)-3,5-Dimethylmorpholin-4-yl][(7S)-4-(pyrazolo[1,5-a]pyridin-5-ylamino)-5,6,7,8-tetrahydro[1]benzothieno[2,3-d]pyrimidin-7-yl]methanone] | 17
14 | C[C@@H]1COC[C@@H](C)N1C(=O)[C@H]1CCc2c(sc3ncnc(Nc4ccn5nccc5c4)c23)C1 [Example 14, [(3R,5R)-3,5-Dimethylmorpholin-4-yl][(7S)-4-(pyrazolo[1,5-a]pyridin-5-ylamino)-5,6,7,8-tetrahydro[1]benzothieno[2,3-d]pyrimidin-7-yl]methanone] | 7
15 | CC(C)N(C)C(=O)[C@H]1CCc2c(sc3ncnc(Nc4ccn5nccc5c4)c23)C1 [Example 16, (7S)—N-Isopropyl-N-methyl-4-(pyrazolo[1,5-a]pyridin-5-ylamino)-5,6,7,8-tetrahydro[1]benzothieno[2,3-d]pyrimidine-7-carboxamide] | 19
16 | CN(C)C(=O)[C@H]1CCc2c(sc3ncnc(Nc4ccn5nccc5c4)c23)C1 [Example 17, (7S)—N,N-Dimethyl-4-(pyrazolo[1,5-a]pyridin-5-ylamino)-5,6,7,8-tetrahydro[1]benzothieno[2,3-d]pyrimidine-7-carboxamide] | 33
17 | CN(CC(F)F)C(=O)[C@H]1CCc2c(sc3ncnc(Nc4ccn5nccc5c4)c23)C1 [Example 18, (7S)—N-(2,2-Difluoroethyl)-N-methyl-4-(pyrazolo[1,5-a]pyridin-5-ylamino)-5,6,7,8-tetrahydro[1]benzothieno[2,3-d]pyrimidine-7-carboxamide] | 19
18 | CN(CC(C)(C)O)C(=O)[C@H]1CCc2c(sc3ncnc(Nc4ccn5nccc5c4)c23)C1 [Example 19, (7S)—N-(2-Hydroxy-2-methylpropyl)-N-methyl-4-(pyrazolo[1,5-a]pyridin-5-ylamino)-5,6,7,8-tetrahydro[1]benzothieno[2,3-d]pyrimidine-7-carboxamide] | 21
19 | O=C([C@H]1CCc2c(sc3ncnc(Nc4ccn5nccc5c4)c23)C1)N1CCC1 [Example 20, Azetidin-1-yl[(7S)-4-(pyrazolo[1,5-a]pyridin-5-ylamino)-5,6,7,8-tetrahydro[1]benzothieno[2,3-d]pyrimidin-7-yl]methanone] | 26
20 | CCN(CCO)C(=O)[C@H]1CCc2c(sc3ncnc(Nc4ccn5nccc5c4)c23)C1 [Example 21, (7S)—N-Ethyl-N-(2-hydroxyethyl)-4-(pyrazolo[1,5-a]pyridin-5-ylamino)-5,6,7,8-tetrahydro[1]benzothieno[2,3-d]pyrimidine-7-carboxamide] | 19
21 | N#CC1CN(C(=O)[C@H]2CCc3c(sc4ncnc(Nc5ccn6nccc6c5)c34)C2)C1 [Example 22, 1-{[(7S)-4-(Pyrazolo[1,5-a]pyridin-5-ylamino)-5,6,7,8-tetrahydro[1]benzothieno[2,3-d]pyrimidin-7-yl]carbonyl}azetidine-3-carbonitrile] | 21
22 | O=C([C@H]1CCc2c(sc3ncnc(Nc4ccn5nccc5c4)c23)C1)N1CC(F)(F)C1 [Example 23, (3,3-Difluoroazetidin-1-yl)[(7S)-4-(pyrazolo[1,5-a]pyridin-5-ylamino)-5,6,7,8-tetrahydro[1]benzothieno[2,3-d]pyrimidin-7-yl]methanone] | 23
23 | O=C([C@H]1CCc2c(sc3ncnc(Nc4ccn5nccc5c4)c23)C1)N1CC(O)C1 [Example 24, (3-Hydroxyazetidin-1-yl)[(7S)-4-(pyrazolo[1,5-a]pyridin-5-ylamino)-5,6,7,8-tetrahydro[1]benzothieno[2,3-d]pyrimidin-7-yl]methanone] | 20
24 | CN(CCNC(=O)OC(C)(C)C)C(=O)[C@H]1CCc2c(sc3ncnc(Nc4ccn5nccc5c4)c23)C1 [Example 25, tert-Butyl [2-(methyl{[(7S)-4-(pyrazolo[1,5-a]pyridin-5-ylamino)-5,6,7,8-tetrahydro[1]benzothieno[2,3-d]pyrimidin-7-yl]carbonyl}amino)ethyl]carbamate] | 13
